From US7932270B2 (Cytokinetics, Inc., priority 2006, dated 2011) come the findings set out here.

SMILES strings stand for the structures.

In this experiment the target is T1, chicken gizzard smooth muscle myosin subfragment-1 chemically crosslinked to cardiac or skeletal actin (Gallus gallus, UniProt P10587).
T1 construct: chicken gizzard smooth muscle myosin subfragment-1; from tissue; host or cells: chicken gizzard
T1 sequence (P02607 2-151): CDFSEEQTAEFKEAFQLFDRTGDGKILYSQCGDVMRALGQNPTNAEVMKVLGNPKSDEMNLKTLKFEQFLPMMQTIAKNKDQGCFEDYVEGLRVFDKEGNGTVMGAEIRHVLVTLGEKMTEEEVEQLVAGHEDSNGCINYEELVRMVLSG
T1 sequence (P10587 84-789): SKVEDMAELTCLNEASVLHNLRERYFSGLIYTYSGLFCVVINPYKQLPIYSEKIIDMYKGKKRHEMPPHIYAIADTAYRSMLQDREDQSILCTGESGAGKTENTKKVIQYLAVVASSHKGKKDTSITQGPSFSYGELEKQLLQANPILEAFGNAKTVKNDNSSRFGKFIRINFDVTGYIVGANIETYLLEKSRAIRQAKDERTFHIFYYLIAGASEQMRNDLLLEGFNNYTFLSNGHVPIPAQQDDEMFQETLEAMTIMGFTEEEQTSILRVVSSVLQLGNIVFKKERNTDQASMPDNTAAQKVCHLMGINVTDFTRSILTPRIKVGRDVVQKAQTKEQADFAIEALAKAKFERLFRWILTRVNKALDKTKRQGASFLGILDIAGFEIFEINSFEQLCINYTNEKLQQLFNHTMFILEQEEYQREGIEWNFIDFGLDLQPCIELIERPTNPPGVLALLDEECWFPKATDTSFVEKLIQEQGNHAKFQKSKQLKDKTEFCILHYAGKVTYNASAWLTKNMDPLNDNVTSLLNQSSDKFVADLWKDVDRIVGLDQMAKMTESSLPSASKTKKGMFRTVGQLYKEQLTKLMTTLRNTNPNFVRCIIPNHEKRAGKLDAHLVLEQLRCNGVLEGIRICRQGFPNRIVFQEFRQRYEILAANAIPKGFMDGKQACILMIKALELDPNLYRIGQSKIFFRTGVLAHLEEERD
Description: Smooth muscle myosin ATPase dose response assay (pyruvate kinase/horseradish peroxidase/pyruvate oxidase-coupled, amplex red fluorescence). It counts as biochemical. The conditions noted are these: read-out: IC50 Arithmetic Mean. Summed up: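 Inhibition is measured in a peroxidase/pyruvate oxidase-linked format at pH 7.00 and 22° C, 0.15 mM ATP final. Myosin input is titrated to a target turnover since active fraction differs between preparations.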
As to `Cn1cc(-c2nc(NCCc3cccc(F)c3)c(C(=O)NCc3cccnc3CNC(=O)OC(C)(C)C)cc2F)cn1` [N-[(2-{[(tert-butoxy)carbonylamino]methyl}(3-pyridyl))methyl](5-fluoro-2-{[2-(3-fluorophenyl)ethyl]amino}-6-(1-methylpyrazol-4-yl)(3-pyridyl))carboxamide], the IC50 was found to be 0.388 µM.

Regarding `CN(CCNC(=O)c1ccc(-c2ccccc2C#N)nc1NCCc1cccc(F)c1)C(=O)CCCNC(=O)OC(C)(C)C` [4-[(tert-butoxy)carbonylamino]-N-{2-[(6-(2-cyanophenyl)-2-{[2-(3-fluorophenyl)ethyl]amino}(3-pyridyl))carbonylamino]ethyl}-N-methylbutanamide], the IC50 came out at 3.88 µM.

Regarding `O=C(Nc1ccccn1)c1ccc(-c2ccccc2)nc1NCCc1ccccn1` [{6-phenyl-2-[(2-(2-pyridyl)ethyl)amino](3-pyridyl)}-N-(2-pyridyl)carboxamide], the IC50 worked out at 7.19 µM.

A word on the IC50: it is the concentration that inhibits the measured activity by half.
